Numbers after ± are expanded uncertainties.
Test: an = ratio of the nth substance listed
Conditions: 298.15 K; 101 kPa; Liquid; Cone and plate viscometry; a1 = 1

Compound CCCCCCCCCCCCCC[P+](CCCCCC)(CCCCCC)CCCCCC.O=S(=O)([N-]S(=O)(=O)C(F)(F)F)C(F)(F)F + NCCO has a viscosity of 90 ± 2 mPa·s.

From the NIST ThermoML archive (doi:10.1021/acs.jced.5b00710)
